Data as given in paper PMC9823088, “The oral selective estrogen receptor degrader GDC-0810 (ARN-810) in postmenopausal women with hormone receptor-positive HER2-negative (HR + /HER2 −) advanced/metastatic breast cancer” (Breast Cancer Research and Treatment, 2022).
Each block holds one compound with its values, some of them ahead of it.

Tests used:
[1] = Plasma pharmacokinetics of GDC-0810 and glucuronide metabolites; format: in vivo, human; conditions: steady state, 600-mg QD, non-fasted condition
Procedure: Blood samples were collected for pharmacokinetic assessments. Tumor assessments were performed at screening and every 8 weeks from cycle 1, day 1 (C1D1). Radiographic assessment of objective tumor response or disease progression was based on Response Evaluation Criteria in Solid Tumors (RECIST v1.1). Transvaginal ultrasound scans were performed to monitor endometrial thickness at screening, at every 6 months from C1D1, and at the end of treatment. Imaging with [^18F]-fluoroestradiol positron emission tomography (FES-PET) was performed to quantify ER expression in tumors and to assess for pharmacodynamic response. Further assessment details are provided in Supplementary Methods.
CYP2B6 and CYP2C enzymes. […]
Blood samples were collected for pharmacokinetic assessment on lead-in day −7 and cycle 2 day 1 (C2D1) at predose (0 hour) and postdose (0.5, 1, 1.5, 2, 3, 4, 6, 8, and 24 hours), (plus at 48 hours postdose for day−7). Full plasma pharmacokinetic profiles were obtained for GDC-0810 and its glucuronide metabolites (acyl-glucuronide and N-glucuronide) using a validated liquid chromatography/ tandem mass spectrometry method, and analyzed using non-compartmental methods for all patients in the dose escalation cohorts.
Tumor assessments were performed at screening and every 8 weeks from cycle-1, day-1 […]

[2] = test system: ER; set-up: method as in PMID 25380844; conditions: patients receiving fulvestrant; cited from earlier work
[3] = set-up: method as in PMID 32919527; conditions: cited from earlier work
[4] = test system: MBC; set-up: method as in PMID 34906954; conditions: cited from earlier work

- average plasma exposure of metabolite relative to parent GDC-0810 [1]: ~10%
SMILES: CC/C(=C(/c1ccc(/C=C/C(=O)O[C@@H]2O[C@H](C(=O)O)[C@@H](O)[C@H](O)[C@H]2O)cc1)c1ccc2[nH]ncc2c1)c1ccc(F)cc1Cl [GDC-0810-acyl-glucuronide]

SMILES: C[C@]12CC[C@@H]3c4ccc(O)cc4C[C@@H](CCCCCCCCC[S+]([O-])CCCC(F)(F)C(F)(F)F)[C@H]3[C@@H]1CC[C@@H]2O (some centres unmarked) [fulvestrant]
- patients with residual ER activity by FES-PET [2]: 38%
- solubility [3]: poor solubility

SMILES: CCNCCc1ccc(CN(CC)c2cc(OC)ccc2[C@@H]2CCc3cc(O)ccc3C2)cc1 [elacestrant]
- PFS ([4]; patients with MBC who received endocrine + CDK4/6 previously): 2.8 months
- median PFS ([4]; patients with tumors harboring ESR1 mutations): 3.8 months
